Values of other authors, collected in patent US6447793B2, “Water soluble, broad spectrum preservative system” (The Collaborative Group, Ltd., priority 1998, dated 2002).

What was measured:
Conditions in all cases: pH of 4.5 or below
[1] = tested on: mold
[2] = tested on: yeast
[3] = tested on: most bacterial

C/C=C/C=C/C(=O)O [sorbic acid, Sorbic acid]
activity against mold [1]: very active | activity against yeast [2]: fair | activity against most bacterial [3]: poor
